Assays:
[1] = molecular target: T1, Replication protein A 70 kDa DNA-binding subunit (Homo sapiens, UniProt P27694); conditions: at 500 µM
Description: Displacement of FITC-ATRIP/FITC-ATRIP2 peptide probe from RPA70N protein (unknown origin) at 500 uM incubated for 1 hr by fluorescence polarization anisotropy assay

[2] = molecular target: T1, Replication protein A 70 kDa DNA-binding subunit; assay: Binding affinity to RPA70N protein (unknown origin) by HSQC NMR-based titration method
[3] = molecular target: T1, Replication protein A 70 kDa DNA-binding subunit
Description: Binding affinity to RPA70N protein (unknown origin) incubated for 1 hr using FITC-ATRIP/FITC-ATRIP2 peptide probe by fluorescence polarization anisotropy assay

[4] = Intrinsic permeability in human Caco2 cells; format: ADME, cell-based; conditions: Caco-2, read-out: permeability

T1 sequence (P27694 whole entry): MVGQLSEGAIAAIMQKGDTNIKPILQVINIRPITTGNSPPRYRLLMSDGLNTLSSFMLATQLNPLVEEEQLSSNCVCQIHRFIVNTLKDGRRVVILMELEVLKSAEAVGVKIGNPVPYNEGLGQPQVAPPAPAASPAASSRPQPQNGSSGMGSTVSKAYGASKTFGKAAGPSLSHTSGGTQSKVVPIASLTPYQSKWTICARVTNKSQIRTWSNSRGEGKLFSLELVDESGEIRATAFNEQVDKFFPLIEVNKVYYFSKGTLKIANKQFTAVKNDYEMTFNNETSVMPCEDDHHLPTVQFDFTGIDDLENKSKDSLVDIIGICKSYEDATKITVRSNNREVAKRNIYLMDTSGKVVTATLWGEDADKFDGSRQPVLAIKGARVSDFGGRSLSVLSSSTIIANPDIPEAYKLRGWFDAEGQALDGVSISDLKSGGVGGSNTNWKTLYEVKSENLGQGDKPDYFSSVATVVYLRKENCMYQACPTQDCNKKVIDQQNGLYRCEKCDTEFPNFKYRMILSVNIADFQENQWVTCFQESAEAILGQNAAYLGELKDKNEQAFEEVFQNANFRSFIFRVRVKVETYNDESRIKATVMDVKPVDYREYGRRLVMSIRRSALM

| SMILES | Kd [3] | further results |
| --- | --- | --- |
| COc1ccc(-n2nc(C(=O)O)cc2-c2ccccc2)cc1 | > 500 µM | inhibition [1]: 18%; Kd [2]: 895 µM |
| O=C(O)c1cc(-c2ccc(CNC(=S)c3ccc(-c4nnn[nH]4)cc3)cc2)n(-c2ccc(Cl)c(Cl)c2)n1 | 2.2 µM | – |
| O=C(NCc1ccc(-c2ccc(C(=O)O)o2)cc1Cl)c1ccc(-c2cc(C(=O)O)nn2-c2ccc(Cl)c(Cl)c2)cc1 | 9.4 µM | – |
| O=C(O)c1cc(-c2cccc(CNCc3ccc(-c4ccc(C(=O)O)o4)cc3)c2)n(-c2ccc(Cl)c(Cl)c2)n1 | 57 µM | – |
| O=C(O)c1cc(-c2ccc(C(=S)NCc3ccc(-c4ccc(C(=O)O)o4)cc3Cl)cc2)n(-c2ccc(Cl)c(Cl)c2)n1 | 0.48 µM | – |
| Cc1cccc(-c2cc(C(=O)O)nn2-c2ccc(Cl)c(Cl)c2)c1 | 90 µM | – |
| NS(=O)(=O)c1ccc(C(=S)NCc2ccc(-c3cc(C(=O)O)nn3-c3ccc(Cl)c(Cl)c3)cc2)cc1 | 34 µM | – |
| N#Cc1ccc(-c2cc(C(=O)O)nn2-c2ccc(Cl)c(Cl)c2)cc1 | 310 µM | – |
| O=C(O)c1cccc(-c2cc(C(=O)O)nn2-c2ccc(Cl)c(Cl)c2)c1 | 129 µM | – |
| O=C(O)c1cc(-c2ccco2)n(-c2ccc(Cl)c(Cl)c2)n1 | > 500 µM | – |
| O=C(O)c1cc(-c2ccc(CNC(=S)c3ccc(-c4nc(=O)o[nH]4)cc3)cc2)n(-c2ccc(Cl)c(Cl)c2)n1 | 9.3 µM | – |
| Nc1ccc(-c2cc(C(=O)O)nn2-c2ccc(Cl)c(Cl)c2)cc1 | 227 µM | – |
| COc1ccc(-c2cc(C(=O)O)nn2-c2ccc(Cl)cc2)cc1 | > 500 µM | inhibition [1]: 19% |
| CC(=O)N(Cc1ccc(-c2ccc(C(=O)O)o2)cc1)Cc1cccc(-c2cc(C(=O)O)nn2-c2ccc(Cl)c(Cl)c2)c1 | 8.2 µM | – |
| O=C(O)c1cc(-c2ccc(C(=S)NCc3cccc(-c4ccc(C(=O)O)o4)c3)cc2)n(-c2ccc(Cl)c(Cl)c2)n1 | 2.5 µM | – |
| COc1ccc(-c2cc(C(=O)O)nn2C2CCCCC2)cc1 | > 500 µM | inhibition [1]: 9% |
| O=C(O)c1cc(-c2ccc(CN3CCc4cc(-c5ccc(C(=O)O)o5)ccc4C3=S)cc2)n(-c2ccc(Cl)c(Cl)c2)n1 | 0.54 µM | – |
| Cc1cccc(-n2nc(C(=O)O)cc2-c2ccccc2)c1 | > 500 µM | Kd [2]: 580 µM |
| COc1ccc(-c2cc(C(=O)O)nn2-c2ccc(Br)cc2)cc1 | > 500 µM | inhibition [1]: 24% |
| O=C(O)c1ccc(-c2ccc(C(=S)NCc3ccc(-c4ccnn4-c4ccc(Cl)c(Cl)c4)cc3)c(Cl)c2)o1 | 1.7 µM | Papp [4]: 14.5 ×10⁻⁶ cm/s |
| COc1ccc(CNC(=O)c2ccc(-c3cc(C(=O)O)nn3-c3ccc(Cl)c(Cl)c3)cc2)cc1 | 45 µM | – |
| O=C(O)c1cc(Cc2ccc(O)cc2)n(-c2ccc(Cl)c(Cl)c2)n1 | > 500 µM | – |
| COc1ccc(-c2cc(C(=O)O)nn2-c2cccc(Br)c2)cc1 | 140 µM | – |

| SMILES | Kd [3] | further results |
| --- | --- | --- |
| O=C(NCc1ccc(-c2ccc(C(=O)O)o2)cc1)c1cccc(-c2cc(C(=O)O)nn2-c2ccc(Cl)c(Cl)c2)c1 | 22 µM | – |
| O=C(O)c1cc(-c2ccc(C(=S)NCc3ccc(-c4ccc(C(=O)O)o4)cc3)cc2)n(-c2ccc(Cl)c(Cl)c2)n1 | 1.5 µM | – |
| O=C(NCc1ccc(-c2cc(C(=O)O)nn2-c2ccc(Cl)c(Cl)c2)cc1)c1ccccc1 | 90 µM | – |
| O=C(O)c1cc(-c2ccc(CNC(=S)c3ccc(Br)cc3)cc2)n(-c2ccc(Cl)c(Cl)c2)n1 | 15 µM | – |
| COc1ccc(-c2cc(C(=O)O)nn2-c2cccc(Cl)c2)cc1 | > 500 µM | inhibition [1]: 35% |
| O=C(O)c1cc(-c2ccccc2)n(-c2ccc(Cl)c(Cl)c2)n1 | 123 µM | – |
| COc1ccc(C(=O)NCc2ccc(-c3cc(C(=O)O)nn3-c3ccc(Cl)c(Cl)c3)cc2)cc1 | 72 µM | – |
| Cc1ccc(-c2cc(C(=O)O)nn2-c2ccc(Cl)c(Cl)c2)cc1 | 72 µM | – |
| O=C(O)c1cc(-c2ccc(CNC(=S)c3ccc(-c4ccc(C(=O)O)o4)cc3)cc2)n(-c2ccc(Cl)c(Cl)c2)n1 | 0.55 µM | – |
| O=C(O)c1cc(-c2ccc(O)cc2)n(-c2ccc(Cl)c(Cl)c2)n1 | 104 µM | – |
| O=C(O)c1cc(-c2ccc(CNS(=O)(=O)c3ccccc3)cc2)n(-c2ccc(Cl)c(Cl)c2)n1 | 70 µM | – |
| O=C(O)c1cc(-c2ccccc2)n(-c2ccccc2)n1 | – | Kd [2]: 1150 µM |
| O=C(NCc1ccc(-c2cc(C(=O)O)nn2-c2ccc(Cl)c(Cl)c2)cc1)c1ccc(Br)cc1 | 35 µM | – |
| O=C(O)c1cc(-c2ccc(CNS(=O)(=O)c3ccc(OC(F)(F)F)cc3)cc2)n(-c2ccc(Cl)c(Cl)c2)n1 | 56 µM | – |
| O=C(O)c1cc(-c2ccc(Cl)cc2)n(-c2ccc(Cl)c(Cl)c2)n1 | 67 µM | Kd [2]: 54 µM |
| COc1ccc(-c2cc(C(=O)O)nn2-c2ccc(Cl)c(Cl)c2)cc1 | 79 µM | – |
| O=C(O)c1cc(-c2ccc(C(=S)NCc3ccccc3)cc2)n(-c2ccc(Cl)c(Cl)c2)n1 | 18 µM | – |
| COc1ccc(-c2cc(C(=O)O)nn2-c2ccc(C)cc2)cc1 | > 500 µM | inhibition [1]: 15% |
| COc1ccc(CNC(=S)c2ccc(-c3cc(C(=O)O)nn3-c3ccc(Cl)c(Cl)c3)cc2)cc1 | 23 µM | – |
| NCc1ccc(-c2cc(C(=O)O)nn2-c2ccc(Cl)c(Cl)c2)cc1 | > 500 µM | – |
| O=C(O)c1ccc(-c2cc(C(=O)O)nn2-c2ccc(Cl)c(Cl)c2)cc1 | 59 µM | – |
| COc1ccc(-c2cc(C(=O)O)nn2-c2cccc(C)c2)cc1 | > 500 µM | inhibition [1]: 20% |
| O=C(NCc1ccccc1)c1ccc(-c2cc(C(=O)O)nn2-c2ccc(Cl)c(Cl)c2)cc1 | 83 µM | – |
